The values that follow come from patent US9359338B2, “Cyclopropanecarboxamido-substitute aromatic compounds as anti-tumor agents” (Crown Bioscience Inc. (Taiwan), priority 2012, dated 2016).

pIC50: −log10 of the molar value. Read-outs that look alike come from different tables or passages of the source.

The target of assay [1] is KDR kinase (790-1356 AA) (Homo sapiens (Human), UniProt P35968). The assay is described as follows: Inhibitory activity at KDR kinase (Lance Ultra Ulight-TK assay). In kind it is biochemical. The procedure: Inhibitory Activity of Compounds at KDR Kinase
Chain of KDR kinase (790-1356 AA) (P35968 790-1356): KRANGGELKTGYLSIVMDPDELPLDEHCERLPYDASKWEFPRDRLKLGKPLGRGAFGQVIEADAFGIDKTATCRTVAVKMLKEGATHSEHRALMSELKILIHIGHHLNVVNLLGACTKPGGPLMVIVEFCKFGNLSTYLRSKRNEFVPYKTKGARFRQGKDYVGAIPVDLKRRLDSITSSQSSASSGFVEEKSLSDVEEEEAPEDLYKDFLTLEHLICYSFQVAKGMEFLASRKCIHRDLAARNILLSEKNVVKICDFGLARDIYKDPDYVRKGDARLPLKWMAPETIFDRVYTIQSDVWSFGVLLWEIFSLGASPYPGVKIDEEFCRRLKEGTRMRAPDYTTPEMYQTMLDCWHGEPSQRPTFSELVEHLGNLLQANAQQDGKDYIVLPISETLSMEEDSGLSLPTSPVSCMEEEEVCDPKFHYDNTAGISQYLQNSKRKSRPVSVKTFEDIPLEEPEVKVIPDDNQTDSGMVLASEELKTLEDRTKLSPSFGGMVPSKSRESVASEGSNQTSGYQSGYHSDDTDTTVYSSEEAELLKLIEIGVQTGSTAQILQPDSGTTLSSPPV
• [Experimental method]: Use Lance@Ultra Ulight™-TK assay kit from PerKinElmer to evaluate the inhibitory activity of compounds at KDR kinase. • [Instrument]: PerKinElmer's ENVISION plate reader • [Materials]: Optiplate-384 well plate (PerKinElmer), kinase buffer (50 mM Hepes pH7.5, 0.25 mM EGTA, 2 mM DTT, 0.01% Tween 20, 10 mM Mg^2+, 0.5 mM Mn^2+), KDR kinase (790-1356 AA, Crown Bioscience), KDR kinase substrate (PerKinElmer catalogue # TRF0127-M), Lance@Eu-W1024-anti-phosphotyrosine (PT66) (PerKinElmer, catalogue #AD0068), ATP (Invitrogen), DMSO (Sigma, catalogue #34869), purified water (Millipore, type: Milli-Q). • [Study conditions]: Mix KDR (final concentration: 20 nM) and compound (final DMSO: 0.5%), pre-incubate for 20 min at 30° C.; then add ATP (final concentration: 90 μM) and the substrate (final concentration […]). React for 2 hrs at 30° C. After the reaction, add antibody and reaction for 60 min at 30° C. Read the plate (615 nm, 665 nm), calculate the ratio of the value at 665 nm vs 615 nm and analyze the data. • [Samples]: Compounds in the examples and Sorafenib (positive control) • [Data Analysis]: Use CBIS data analysis software to calculate IC50 values

Assay [2] has as its system PLC-PRF-5 cells. The assay is described as follows: Inhibition of proliferation of PLC-PRF-5 cells (ATPlite). In kind it is cell-based. The settings on record: read-out: PLC-PRF-5 cell proliferation IC50. An excerpt:
Inhibitory Activity of Compounds to the Proliferation of PLC-PRF-5 Cells
• [experimental Method]: Use PerKinElmer's ATPlite™ Luminescence ATP Detection Assay System to evaluate the inhibitory activity of compounds to the proliferation of PLC-PRF-5 cells. • [Instruments]: ENVISION plate reader (PerKinElmer) and centrifuge (Thermo Scientific, Sorvall ST16R) • [material]: PLC-PRF-5 cells (ATCC), 96-well plate (Nunc, #165305), DMEM medium (Gibco, #11965-092), PBS (Invitrogen, #10010023), fetal bovine serum (Gibco, #16000044), DMSO (Sigma, #D2650), ATPlite™ Luminescence ATP Detection Assay System (PerkinElmer, #6016949), purified water (Millipore, type: Milli-Q). • [Protocol]: Grow PLC-PRF-5 cells in DMEM supplemented with 10% FBS. When the cells reach 80% confluency, collect cells by trypsinization and centrifugation at 800 rpm for 3 min. Resuspend cells with appropriate volume of medium and count cell numbers. Adjust cell concentration to 50000 cells/mL, and split 160 μL cell suspension per well into 96-well plates. Transfer the plates into cell culture incubator (37° C., 5% CO2) and incubate cells for 2 hrs. Prepare compound serial dilutions in culture medium with total 8 compound concentrations at 3-fold serial dilutions (the final top concentration starts from 30 μM). Dispense 40 μL of each test compound dilution into corresponding wells with DMSO at 0.3% final concentration. Continue incubating cells in cell culture incubator for additional 96 hrs at 37° C., 5% CO2. Discard culture medium, and wash cells once with PBS. Add 50 μL cell lysis buffer per well and shake plates for 5 min at room temperature to ensure complete lysis of cells. Then add 50 μL of substrate solution and shake plates for 1 min at room temperature. Allow the plates to incubate at room temperature for 5 min, followed by recording the luminescence signals using Envision, and subsequent data analysis. • [Samples]: Compounds in the examples and Sorafenib (positive control) • [Data analysis]: Use CBIS data analysis software to calculate IC50 values

The subject of assay [3] is pERK in MDA-MB-231 cells. Briefly: Inhibitory activity at pERK (In Cell Western, MDA-MB-231 cells). It is filed as cell-based. The settings on record: read-out: MDA-MB-231 pERK IC50. The procedure: Inhibitory Activity of Compounds at pERK
When the cells reach 80% confluency, collect cells by trypsinization and centrifugation at 800 rpm for 3 minutes. Resuspend cells with appropriate volume of medium and count cell numbers. Adjust cell concentration to 70000 cells/mL, and split 100 μL cell suspension per well into 96-well plates. Transfer the plates into cell culture incubator (37° C., 5% CO2) and incubate cells overnight. Discard the medium, wash with PBS once, Prepare compound serial dilutions in culture medium with total 8 compound concentrations at 3-fold serial dilutions (the final top concentration starts from 30 μM). Dispense 75 μL DMEM medium (with 0.1% BSA) and 25 μL of each test compound dilution into corresponding wells with DMSO at 0.3% final concentration. Continue incubating cells in cell culture incubator for additional 2 hrs at 37° C., 5% CO2. Discard culture medium, and wash cells once with PBS. Add 100 μL of 4% formaldehyde solution to each well and fix for 20 min. Discard the formaldehyde, then add 100 μL ice-cold 100% methanol at 4° C. for 20 min. Discard methanol, wash with PBS three times. Add to each well 100 μL of 2% BSA solution, seal for 30 min at room temperature. Discard the BSA solution, add to each well 50 μL of the 1st antibody solution (prepared with 2% BSA, 1:250 dilution), incubate at 4° C. overnight. Discard the 1^St antibody solution, wash with PBS four times. Add to each well […] the 2nd antibody solution (prepared with 1% BSA, 1:1000 dilution), incubate at room temperature for 1 hr. Discard the 2nd antibody solution, wash with PBS four times, add to each well 100 μL PI solution (1.5 μM), incubate at room temperature for 30 min. Use Acumen (TPP) to measure the fluorescence. • [Samples]: Compounds in the examples and sorafenib (positive control) • [Data Analysis]: Use CBIS data analysis software to calculate IC50 values

The mark [4] stands for this setting: Homo sapiens, PLC-PRF-5, PLC-PRF-5 cells.
Where [5] appears, read: Homo sapiens, MDA-MB-231, MDA-MB-231 cells.

As for `O=C(Nc1ccc(Cl)c(C(F)(F)F)c1)Nc1cc(Oc2cc(NC(=O)C3CC3)ncn2)ccc1F` [Exe. 002, N-[6-[3-[[4-chloro-3-(trifluoromethyl)phenyl]carbamoyl-amino]-4-fluoro-phenoxy]pyrimidin-4-yl]cyclopropanecarboxamide], the values for the pIC50 in assay [1], in assay [2] (setting [4]) and in assay [3] (setting [5]) were 8.27, 5.47 and 7.81, respectively.

Consider `Cc1cc(Oc2cc(NC(=O)C3CC3)ncn2)c(F)cc1NC(=O)Nc1ccc(Cl)c(C(F)(F)F)c1` [Exe. 003], for which the pIC50 in assay [1] was 7.78; in assay [2] (setting [4]), 4.94; in assay [3] (setting [5]) it was 7.06.

For `O=C(Nc1cc(F)cc(Oc2cc(NC(=O)C3CC3)ncn2)c1)Nc1ccc(Cl)c(C(F)(F)F)c1` [Exe. 005], the results for the pIC50 in assay [1], in assay [2] (setting [4]) and in assay [3] (setting [5]) were 7.57, 5.22 and 7.39, respectively.

In the case of `N#Cc1cc(NC(=O)Nc2ccc(Cl)c(C(F)(F)F)c2)ccc1Oc1cc(NC(=O)C2CC2)ncn1` [Exe. 006], the pIC50 was 7.60 in assay [1], 5.27 in assay [2] (setting [4]) and 6.55 in assay [3] (setting [5]).

`Cc1nc(NC(=O)Nc2ccc(Cl)c(C(F)(F)F)c2)ccc1Oc1cc(NC(=O)C2CC2)ncn1` [Exe. 011]: the pIC50 in assay [1] is 7.87; in assay [2] (setting [4]) it was 4.71; in assay [3] (setting [5]) it was 6.58.

Consider `O=C(Nc1cccc(Oc2cc(NC(=O)C3CC3)ncn2)c1)Nc1ccc(Cl)c(C(F)(F)F)c1` [Exe. 012], for which the pIC50 was 8.00 in assay [1], 4.99 in assay [2] (setting [4]) and 7.15 in assay [3] (setting [5]).

Turning to `O=C(Nc1ccc(F)c(Oc2cc(NC(=O)C3CC3)ncn2)c1)Nc1ccc(Cl)c(C(F)(F)F)c1` [Exe. 013], the pIC50 in assay [1] was 7.85; in assay [2] (setting [4]), 4.79; in assay [3] (setting [5]) it was 7.30.

With `Cc1ccc(Oc2cc(NC(=O)C3CC3)ncn2)cc1NC(=O)Nc1ccc(Cl)c(C(F)(F)F)c1` [Exe. 014], the pIC50 is 8.15 in assay [1], 5.06 in assay [2] (setting [4]) and 7.31 in assay [3] (setting [5]).

With `O=C(Nc1ccc(Oc2cc(NC(=O)C3CC3)ncn2)nc1)Nc1ccc(Cl)c(C(F)(F)F)c1` [Exe. 015], the figures for the pIC50 in assay [1], in assay [2] (setting [4]) and in assay [3] (setting [5]) were 8.38, 5.19 and 7.03, respectively.

As for `Cc1cc(Oc2cc(NC(=O)C3CC3)ncn2)ncc1NC(=O)Nc1ccc(Cl)c(C(F)(F)F)c1` [Exe. 016], the pIC50 is 8.03 in assay [1], 4.70 in assay [2] (setting [4]) and 7.26 in assay [3] (setting [5]).

As for `Cc1cc(Oc2ccnc(NC(=O)C3CC3)c2)ncc1NC(=O)Nc1ccc(Cl)c(C(F)(F)F)c1` [Exe. 018], the values for the pIC50 in assay [1], in assay [2] (setting [4]) and in assay [3] (setting [5]) were 8.03, 5.39 and 8.34, respectively.

Turning to `N#Cc1cc(NC(=O)Nc2ccc(Cl)c(C(F)(F)F)c2)ccc1Oc1ccnc(NC(=O)C2CC2)c1` [Exe. 026], the pIC50 was 7.74 in assay [1], 6.05 in assay [2] (setting [4]) and 7.41 in assay [3] (setting [5]).

Regarding `O=C(Nc1ccc(Oc2ccnc(NC(=O)C3CC3)c2)c(F)c1)Nc1ccc(Cl)c(C(F)(F)F)c1` [Exe. 027], the pIC50 in assay [2] (PLC-PRF-5 cells) is 5.62; in assay [3] (MDA-MB-231 cells), 7.18.

As for `Cc1cc(Oc2cc(NC(=O)C3CC3)ncn2)ccc1NC(=O)Nc1cc(NC(C)C)cc(C(F)(F)F)c1` [Exe. 032, N-[6-[4-[[3-(isopropylamino)-5-(trifluoromethyl)phenyl]carbamoylamino]-3-methyl-phenoxy]pyrimidin-4-yl]cyclopropanecarboxamide], the pIC50 in assay [1] is 7.59; in assay [2] (setting [4]), 4.70; in assay [3] (setting [5]), 6.94.

Consider `CC(F)(F)c1cncc(NC(=O)Nc2ccc(Oc3ccnc(NC(=O)C4CC4)c3)cc2F)c1` [Exe. 033], for which the pIC50 was 8.25 in assay [1], 7.46 in assay [2] (setting [4]) and 8.30 in assay [3] (setting [5]).

Turning to `CN1CCC(c2ccc(NC(=O)Nc3ccc(Oc4ccnc(NC(=O)C5CC5)c4)c(F)c3)cc2C(F)(F)F)CC1` [Exe. 036], the figures for the pIC50 in assay [1], in assay [2] (setting [4]) and in assay [3] (setting [5]) were 7.81, 5.62 and 6.54, respectively.

With `O=C(Nc1cc(OC2CCOC2)cc(C(F)(F)F)c1)Nc1ccc(Oc2ccnc(NC(=O)C3CC3)c2)c(F)c1` (centres unmarked) [Exe. 039], the pIC50 in assay [1] is 7.85; in assay [2] (setting [4]) it was 6.30; in assay [3] (setting [5]) it was 7.26.

In the case of `CN1CCC(C(=O)c2cc(NC(=O)Nc3ccc(Oc4ccnc(NC(=O)C5CC5)c4)c(F)c3)cc(C(F)(F)F)c2)CC1` [Exe. 040], the pIC50 in assay [1] was 7.82; in assay [2] (setting [4]) it was 6.19; in assay [3] (setting [5]), 6.87.

As to `Nc1nnc(-c2cc(NC(=O)Nc3ccc(Oc4ccnc(NC(=O)C5CC5)c4)c(F)c3)cc(C(F)(F)F)c2)o1` [Exe. 042], the pIC50 is 7.94 in assay [1], 5.45 in assay [2] (setting [4]) and 7.03 in assay [3] (setting [5]).

In the case of `COCC(=O)Nc1cc(NC(=O)Nc2ccc(Oc3ccnc(NC(=O)C4CC4)c3)c(F)c2)cc(C(F)(F)F)c1` [Exe. 043], the pIC50 in assay [1] is 7.74; in assay [2] (setting [4]), 6.22; in assay [3] (setting [5]), 7.52.

In the case of `CC(c1cc(NC(=O)Nc2ccc(Oc3ccnc(NC(=O)C4CC4)c3)c(F)c2)cc(C(F)(F)F)c1)N1CCN(C)CC1` (centres unmarked) [Exe. 045], the pIC50 was 7.81 in assay [1], 6.97 in assay [2] (setting [4]) and 7.40 in assay [3] (setting [5]).

Turning to `O=C(Nc1cc(N2CCC(F)CC2)cc(C(F)(F)F)c1)Nc1ccc(Oc2ccnc(NC(=O)C3CC3)c2)c(F)c1` [Exe. 046], the pIC50 was 7.78 in assay [1], 6.19 in assay [2] (setting [4]) and 7.24 in assay [3] (setting [5]).

With `O=C(Nc1cc(NC2CC2)cc(C(F)(F)F)c1)Nc1ccc(Oc2ccnc(NC(=O)C3CC3)c2)c(F)c1` [Exe. 049], the pIC50 in assay [1] was 8.00; in assay [2] (setting [4]), 6.19; in assay [3] (setting [5]), 7.29.

In the case of `CC(c1cc(NC(=O)Nc2ccc(Oc3ccnc(NC(=O)C4CC4)c3)c(F)c2)cc(C(F)(F)F)c1)N1CCNCC1` (centres unmarked) [Exe. 067, N-[4-[2-fluoro-4-[[3-(1-piperazin-1-ylethyl)-5-(trifluoromethyl)phenyl]carbamoylamino]phenoxy]-2-pyridyl]cyclopropanecarboxamide], the pIC50 in assay [2] (setting [4]) is 6.63; in assay [3] (setting [5]), 7.12.

In the case of `Cc1cc(Oc2cc(NC(=O)C3CC3)ncn2)ccc1NC(=O)Nc1cc(C2CCN(C)CC2)cc(C(F)(F)F)c1` [Exe. 073], the pIC50 in assay [2] (setting [4]) is 5.53.
